Laboratory results taken from patent US4347319A, “Microbiological epoxidation process” (priority 1980, dated 1982).

What was measured:
Test in all cases: Oxidation by cell fractions P(40), P(80), S(80)
Assay type in all cases: biochemical
[1] = biological target: T1, cell fractions of Methylosinus sp. (CRL-15, NRRL B-11,202) (Methylosinus trichosporium, UniProt Q50541+Q9KX50+Q9KX51); details: for Rate of Product Formation: P(40) particulate fraction, alkene to epoxide, alkane to alcohol; for Rate of Product Formation / Oxidizing Activity (rate of oxidation) in cell fraction: 30° C.; for Conversion Rate: particulate P(40) fraction, n-propane to 2-propanol, n-butane to 2-butanol; for 100% activity, product formed (storage study) / 100% activity, product formed (pH study) / 100% activity, product formed (temperature study) / Oxidizing Activity (rate of oxidation) in cell fraction: methane to methanol, propylene to propylene oxide; for 100% activity, product formed (pH study): optimum pH 7.0; for 100% activity, product formed (temperature study): optimum temperature 35° C.; for % Distribution in Cell Fraction: propylene-epoxidizing / methane-hydroxylating activity; for Product Formed / O2 Consumed / NADH Oxidized: stoichiometry, 5.0 μ moles substrate; for Product Formed: gas chromatography; for O2 Consumed: polarographically; for NADH Oxidized: spectrophotometrically
T1 sequence (Q9KX50 40-431): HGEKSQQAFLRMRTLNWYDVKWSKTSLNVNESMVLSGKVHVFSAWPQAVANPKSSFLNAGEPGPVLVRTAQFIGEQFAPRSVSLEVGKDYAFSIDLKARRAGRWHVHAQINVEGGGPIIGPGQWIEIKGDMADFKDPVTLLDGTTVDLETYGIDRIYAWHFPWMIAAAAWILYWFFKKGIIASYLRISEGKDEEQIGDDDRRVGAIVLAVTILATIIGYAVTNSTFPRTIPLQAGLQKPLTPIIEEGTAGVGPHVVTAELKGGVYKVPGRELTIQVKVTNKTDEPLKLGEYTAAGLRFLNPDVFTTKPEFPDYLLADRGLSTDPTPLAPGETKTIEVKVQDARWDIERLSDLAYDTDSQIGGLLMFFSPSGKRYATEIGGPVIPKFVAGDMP
T1 sequence (Q50541 1-252): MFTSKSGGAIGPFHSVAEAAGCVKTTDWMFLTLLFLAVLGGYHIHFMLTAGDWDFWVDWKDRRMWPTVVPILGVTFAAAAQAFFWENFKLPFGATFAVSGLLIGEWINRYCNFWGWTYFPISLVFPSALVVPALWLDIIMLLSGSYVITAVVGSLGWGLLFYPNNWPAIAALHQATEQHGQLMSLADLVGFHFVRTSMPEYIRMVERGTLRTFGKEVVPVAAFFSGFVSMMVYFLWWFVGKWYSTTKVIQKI
T1 sequence (Q9KX51 1-256): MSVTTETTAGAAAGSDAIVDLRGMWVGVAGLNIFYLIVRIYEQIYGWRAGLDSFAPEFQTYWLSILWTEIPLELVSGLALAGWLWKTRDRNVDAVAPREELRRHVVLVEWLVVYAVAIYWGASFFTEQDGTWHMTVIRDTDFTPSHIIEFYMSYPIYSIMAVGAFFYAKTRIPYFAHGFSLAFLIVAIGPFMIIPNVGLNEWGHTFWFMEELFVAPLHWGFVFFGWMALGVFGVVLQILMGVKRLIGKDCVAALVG
Description: (§1) Cells were washed twice with 25 mM potassium phosphate buffer, pH 7.0 containing 5 mM MgCl2. Cells were suspended in the same buffer. The cell suspensions at 4° C. were disintegrated by a single passage through a French Pressure cell (15,000 lb./in.^2) and centrifuged at 5000×g. for 15 min. to remove unbroken bacteria. The supernatant solution (crude extract) was then centrifuged at 40,000×g. for 30 min., yielding particulate P(40) and soluble S(40) fractions. The S(40) fraction was subsequently centrifuged at 80,000×g. for 60 min., yielding particulate P(80) and soluble S(80) fractions. The particulate fractions [P(40) and P(80)] were suspended in 25 mM potassium phosphate buffer, pH 7.0, containing 5 mM MgCl2 and homogenized at 4° C.
(§2) The oxidation of methane and propylene by particulate [(P)40 and (P)80] fractions and soluble [S(80)] fraction was measured at 30° C. by estimating the production of methanol and propylene oxide, respectively. The reaction mixtures contained in […]: 150 mM potassium phosphate buffer, pH 7.0 containing 5 mM MgCl2 b, 0.6 ml; 10μ moles NADH, and cellular fraction.
(§3) Reaction mixtures were contained in 10 ml vials at 4° C. Vials were sealed with rubber caps. The gaseous phase in the vials was removed using vacuum and then was replaced with a gas mixture of methane or propylene and oxygen at a 1:1, v/v ratio. Oxidation of other gaseous n-alkanes and n-alkanes was examined as described above. For liquid substrates, 10 μl of substrate was used directly.
(§4) The products of epoxidation of n-alkenes and hydroxylation of n-alkanes were assayed by flame ionization gas chromatography using a stainless steel column (12'×1/8") packed with 10% Carbowax 20 M on 80/100 Chromosorb W and Porapak Q column. The column temperature was maintained isothermally at 120° C. The carrier gas flow rate was 30 ml/min. of helium. The various products were identified by retention time comparisons and co-chromatography with authentic standards.
(§5) Specific activities were expressed as μ moles of products formed per hour per mg. protein. Concentrations of protein in various fractions were determined by the method of Lowry et al., J. Biol. Chem., 193: 265-275 (1951).

[2] = biological target: T2, cell fractions of Methylococcus capsulatus (Texas, ATCC 19,069) (Methylococcus capsulatus, UniProt G1UBD1+Q603F1+Q607G3); details: for Conversion Rate: particulate P(40) fraction, n-propane to 2-propanol, n-butane to 2-butanol; for Oxidizing Activity (rate of oxidation) in cell fraction: propylene to propylene oxide, methane to methanol, 30° C.; for % Distribution in Cell Fraction: propylene-epoxidizing / methane-hydroxylating activity
T2 sequence (G1UBD1 33-414): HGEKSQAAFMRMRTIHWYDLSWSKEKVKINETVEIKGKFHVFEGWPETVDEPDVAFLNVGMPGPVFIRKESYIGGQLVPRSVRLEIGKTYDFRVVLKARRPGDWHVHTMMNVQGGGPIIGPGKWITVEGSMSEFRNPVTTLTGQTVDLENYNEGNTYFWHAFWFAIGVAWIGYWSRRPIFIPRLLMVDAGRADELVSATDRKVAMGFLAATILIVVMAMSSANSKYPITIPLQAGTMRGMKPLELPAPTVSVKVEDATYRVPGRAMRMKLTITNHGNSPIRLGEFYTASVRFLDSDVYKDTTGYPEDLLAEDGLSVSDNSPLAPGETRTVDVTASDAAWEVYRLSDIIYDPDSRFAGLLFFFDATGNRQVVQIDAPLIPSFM
T2 sequence (Q607G3 1-247): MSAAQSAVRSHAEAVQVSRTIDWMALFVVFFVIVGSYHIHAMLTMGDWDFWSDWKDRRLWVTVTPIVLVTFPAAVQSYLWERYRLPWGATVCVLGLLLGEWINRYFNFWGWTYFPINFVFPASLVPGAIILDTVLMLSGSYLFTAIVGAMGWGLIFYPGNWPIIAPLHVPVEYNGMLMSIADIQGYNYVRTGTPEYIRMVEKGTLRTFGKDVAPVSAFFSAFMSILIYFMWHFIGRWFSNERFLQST
T2 sequence (Q603F1 1-260): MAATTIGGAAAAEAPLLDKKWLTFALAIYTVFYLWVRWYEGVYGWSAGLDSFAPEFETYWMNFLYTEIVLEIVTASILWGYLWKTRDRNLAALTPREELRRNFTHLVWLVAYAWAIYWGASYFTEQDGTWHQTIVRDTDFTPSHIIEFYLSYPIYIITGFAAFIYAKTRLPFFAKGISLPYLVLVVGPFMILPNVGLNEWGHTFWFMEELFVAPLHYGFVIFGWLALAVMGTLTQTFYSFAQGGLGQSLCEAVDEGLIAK
Description: as §1, §2, §3, §4, §5

[3] = tested on: cell fractions of Methylobacterium sp. (CRL-26, NRRL B-11,222); details: for Conversion Rate: particulate P(40) fraction, n-propane to 2-propanol, n-butane to 2-butanol; for Oxidizing Activity (rate of oxidation) in cell fraction: propylene to propylene oxide, methane to methanol, 30° C.
Description: as §1, §2, §3, §4, §5

SMILES	Rate of Product Formation [1]	Conversion Rate [2]	Conversion Rate [1]	Conversion Rate [3]	Oxidizing Activity (rate of oxidation) in cell fraction ([2]; P(40))	% Distribution in Cell Fraction ([2]; P(40)) [%]	Oxidizing Activity (rate of oxidation) in cell fraction ([2]; P(80))	% Distribution in Cell Fraction ([2]; P(80)) [%]	Oxidizing Activity (rate of oxidation) in cell fraction ([2]; S(80))	% Distribution in Cell Fraction ([2]; S(80)) [%]	100% activity, product formed (storage study) ([1]; P(40))	100% activity, product formed (pH study) ([1]; P(40))	100% activity, product formed (temperature study) ([1]; P(40))	Oxidizing Activity (rate of oxidation) in cell fraction ([1]; P(40))	% Distribution in Cell Fraction ([1]; P(40)) [%]	Oxidizing Activity (rate of oxidation) in cell fraction ([1]; P(80))	% Distribution in Cell Fraction ([1]; P(80)) [%]	Oxidizing Activity (rate of oxidation) in cell fraction ([1]; S(80))	% Distribution in Cell Fraction ([1]; S(80)) [%]	Product Formed ([1]; P(40)) [μ moles]	further results
C=CC=C [Butadiene]	0.63 μ moles/hr/mg of protein																				
CCCC [Butane]		0.92 μmoles/hr/2.0mg. of protein	0.89 μmoles/hr/2.0mg. of protein	0.61 μmoles/hr/2.0mg. of protein																	
C [Methane]	4.8 μ moles/hr/mg of protein				3.8 μ moles of products formed per	90	3.9 μ moles of products formed per	10	0 μ moles of products formed per	0	4.8 μmoles per hr. per mg. of prot	4.8 μmoles per hour per mg protein	5.0 μmoles per hour per mg of prot	4.8 μ moles of products formed per	88	4.2 μ moles of products formed per	12	0 μ moles of products formed per	0	4.2	O2 Consumed ([1]; P(40)): 4.6 μ moles; NADH Oxidized ([1]; P(40)): 4.8 μ moles; Oxidizing Activity (rate of oxidation) in cell fraction ([3]; P(40)): 2.7 μ moles of products formed per; Oxidizing Activity (rate of oxidation) in cell fraction ([3]; P(80)): 2.8 μ moles of products formed per; Oxidizing Activity (rate of oxidation) in cell fraction ([3]; S(80)): 0 μ moles of products formed per
CCC [Propane]		1.2 μmoles/hr/2.0mg. of protein	1.5 μmoles/hr/2.0mg. of protein	1.0 μmoles/hr/2.0mg. of protein																	
C=CC [Propylene]	4.1 μ moles/hr/mg of protein				2.6 μ moles of products formed per	89	2.0 μ moles of products formed per	11	0 μ moles of products formed per	0	4.1 μmoles per hr. per mg. of prot	4.1 μmoles per hour per mg protein	4.2 μmoles per hour per mg of prot	3.8 μ moles of products formed per	87	3.7 μ moles of products formed per	13	0 μ moles of products formed per	0	4.5	O2 Consumed ([1]; P(40)): 4.8 μ moles; NADH Oxidized ([1]; P(40)): 5.0 μ moles; Oxidizing Activity (rate of oxidation) in cell fraction ([3]; P(40)): 1.2 μ moles of products formed per; Oxidizing Activity (rate of oxidation) in cell fraction ([3]; P(80)): 1.1 μ moles of products formed per; Oxidizing Activity (rate of oxidation) in cell fraction ([3]; S(80)): 0 μ moles of products formed per
